Assays:
[1] = Components of turpentine oil: body and main organ weights, autopsy, histology; format: in vivo, mice; set-up: main organs' weights, Liver / main organs' weights, Spleen / main organs' weights, 2 kidneys / main organs' weights, 2 testicles / main organs' weights, Thymus / main organs' weights, Brain: unit not given here; details: 5% in ethanol, 4 weeks; for Total body weight in gram / main organs' weights, 2 kidneys / main organs' weights, 2 testicles / main organs' weights, Brain / main organs' weights, Liver / main organs' weights, Spleen / main organs' weights, Thymus: Mean +/- S.D., 10 mice per group
Source text: (§1) The following commercially available, components of turpentine oil were investigated: • (-) α-pinene; product No 13.127.32 Janssen Chim. 2440 Geel, Belgium • (+) α-pinene; product No 13.126.31 Janssen Chim. 2440, Geel Belgium • (-) β-pinene; product No 15.032.94 Janssen Chim, Geel, Belgium • Turpentine oil crude industrial product was originated from Portugal.
(§2) Young adult, male mice of the N.M.R.I. strain, weighing at the beginning of the experiment +/- 30 g were used, as in previous experiments.
(§3) The protocols used were similar to those described in the previous experiments and study was realized during summer months (July and August). Hair coats were cut along the dorsal surfaces with electric clippers in an area of +/- 6.0 cm^2 two days before treatments. Mice were divided into 4 groups of 10 animals. Each mouse received either • (1) A dose of 0.1 mL of 5% absolute ethanol solution of turpentine oil, • (2) (-) α-pinene, • (3) (+) α-pinene or • (4) (-) β-pinene administered topically on the surface of the shaved skin twice weekly.
(§4) Control groups of the same number and similar age and sex mice were treated the same way but topically applied the solvent alone (absolute ethanol).
(§5) After a 4-week treatment duration all the mice were sacrificed by decapitation, and general autopsies were performed in which skin and main organs specimens were excised and fixed in 10% formalin for histological examination after paraffin embedding and hematoxylin -eosin staining.
(§6) The following evaluating criteria of the observations and results were used: • (1) body and main organ weights, • (2) skin and main organs histological patterns, • (3) semi quantitative evaluation of hair follicles per 1 mm long area in a 5 different areas of the histological sections of the skin of each animal in each group at 100 x microscopic magnification.

hair follicles = test: Components of turpentine oil: number of hair follicles after 4-week topical treatment; format: in vivo, mice; details: 4 weeks; for Mean number of hair follicles per 1 mm of skin +/- S.D.: 0.1 mL topically twice weekly, 10 mice per group
Source text: as §1, §2, §3, §4, §5, §6

Structure (SMILES)	general toxicity [1]	Total body weight in gram [1]	main organs' weights, 2 kidneys [1]	main organs' weights, 2 testicles [1]	main organs' weights, Brain [1]	main organs' weights, Liver [1]	main organs' weights, Spleen [1]	main organs' weights, Thymus [1]	Mean number of hair follicles per 1 mm of skin +/- S.D. (hair follicles; 5% in absolute ethanol)	Mean number of hair follicles per 1 mm of skin +/- S.D. (hair follicles; 5% in absolute ethanol, listed as (-) α- pinene)	mice with more than 50 hair follicles (hair follicles; 5% in absolute ethanol, group of 10 mice)	activity (hair follicles multiplication) compared with the control group (hair follicles; 5% in ethanol)	local skin alteration (clinical signs or microscopic examination) (hair follicles; 5% in ethanol)	Mean number of hair follicles per 1 mm of skin +/- S.D. (hair follicles; 5% in absolute ethanol, listed as (+) α- pinene)	Mean number of hair follicles per 1 mm of skin +/- S.D. (hair follicles; 5% in absolute ethanol, listed as (-) β- pinene)	Mean number of hair follicles per 1 mm of skin +/- S.D. (hair follicles; 5% in absolute ethanol, listed as β-pinene)
CC1=CC[C@H]2C[C@@H]1C2(C)C [(-) α-pinene, (1S)-(-)-α-pinene]	neither any sign of a possible general toxicity	39.5 ± .42 gram	814 ± 121.7	440 ± 41.8	674 ± 23	2790 ± 449.9	332 ± 24.9	252 ± 22.8	52.6 per 1 mm of skin	52.6 ± 7.8 per 1 mm of skin	6 out of 10	more than double	did not produce any local skin alteration			
CC1=CC[C@@H]2C[C@H]1C2(C)C [(+) α-pinene, (1R)-(+)-α-pinene]		40.1 ± 3.73 gram	840 ± 89.7	432 ± 34.9	658 ± 23.8	2834 ± 283.4	390 ± 36.7	266 ± 18.1	28.9 per 1 mm of skin			only slightly superior to the effects of treatment with the solvent lone		28.9 ± 6.4 per 1 mm of skin		
C=C1CC[C@H]2C[C@@H]1C2(C)C [(-) β-pinene, (1S)-(-)-β-pinene]												only slightly superior to the effects of treatment with the solvent lone			28.1 ± 7.6 per 1 mm of skin	28.1 per 1 mm of skin
